The target in one data set is purified PARP protein (Homo sapiens, UniProt P09874). Put plainly: PARP enzyme inhibition assay. In kind it is biochemical. The settings on record: [32P]NAD+ incorporation, 500 μM NAD+, 25° C.; two values in a cell = tested twice; read-out: Inhibition Constant Ki.
The subject of another data set is A549 cells. The data set is described as follows: Cytotoxicity potentiation assay (topotecan). The format is cell-based. The note with it: test compound at 0.4 μM, ratio of IC50 of topotecan alone to IC50 of topotecan with test compound.

Structures are written as SMILES. Where “and” joins values, the source holds several entries; their conditions need not be identical. Equal values may be shown once.

purified PARP protein, sequence (P09874 whole entry): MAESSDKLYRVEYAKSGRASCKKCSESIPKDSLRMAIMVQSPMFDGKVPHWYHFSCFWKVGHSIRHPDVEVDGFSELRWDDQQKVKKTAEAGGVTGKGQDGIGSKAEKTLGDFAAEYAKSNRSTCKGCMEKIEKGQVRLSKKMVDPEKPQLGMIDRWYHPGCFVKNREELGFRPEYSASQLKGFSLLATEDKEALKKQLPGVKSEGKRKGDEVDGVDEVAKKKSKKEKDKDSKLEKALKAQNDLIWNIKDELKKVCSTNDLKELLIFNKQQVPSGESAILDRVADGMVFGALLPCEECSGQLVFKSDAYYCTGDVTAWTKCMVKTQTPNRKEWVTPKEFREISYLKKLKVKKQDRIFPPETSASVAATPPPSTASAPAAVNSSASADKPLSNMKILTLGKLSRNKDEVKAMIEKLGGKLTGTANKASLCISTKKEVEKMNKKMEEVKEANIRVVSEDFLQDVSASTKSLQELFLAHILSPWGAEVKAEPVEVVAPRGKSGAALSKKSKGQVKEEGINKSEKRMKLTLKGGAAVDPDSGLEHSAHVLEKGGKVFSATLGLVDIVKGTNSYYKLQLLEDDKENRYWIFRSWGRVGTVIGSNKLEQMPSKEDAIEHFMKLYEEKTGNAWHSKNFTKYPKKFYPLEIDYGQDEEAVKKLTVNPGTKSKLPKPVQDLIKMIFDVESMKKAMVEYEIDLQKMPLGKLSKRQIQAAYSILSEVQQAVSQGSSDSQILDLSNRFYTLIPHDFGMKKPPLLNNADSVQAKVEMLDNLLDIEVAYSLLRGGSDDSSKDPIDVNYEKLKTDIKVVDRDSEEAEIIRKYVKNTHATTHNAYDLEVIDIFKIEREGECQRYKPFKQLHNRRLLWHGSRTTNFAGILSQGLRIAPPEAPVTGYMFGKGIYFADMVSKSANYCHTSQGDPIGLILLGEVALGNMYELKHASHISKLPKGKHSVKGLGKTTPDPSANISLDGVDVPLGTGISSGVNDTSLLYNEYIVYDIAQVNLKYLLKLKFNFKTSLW

Consider `O=C1NN=C(CCc2ccccc2)c2c[nH]c3cccc1c23` [Compound 29, 1,5-Dihydro-3-phenethyl-[1,2]diazepino[4,5,6-cd]-indol-6-one], for which the Ki on purified PARP protein is 8 nM. Moreover, the “Cytotoxicity Potentiation PF50” value in the data set on A549 cells was 1.
`CNCc1ccc(-c2[nH]c3cc(F)cc4c3c2CCNC4=O)cc1` [IIII, 8-Fluoro-2-(4-methylaminomethyl-phenyl)-1,3,4,5-tetrahydro-azepino[5,4,3-cd]indol-6-one]: the “Cytotoxicity Potentiation PF50” value in the data set with A549 cells came to 2.6.
The compound `COc1ccc(Cl)cc1-c1[nH]c2cccc3c2c1CCNC3=O` [SSS, 2-(5-Chloro-2-methoxy-phenyl)-3,4,5,6-tetrahydro-azepino[5,4,3-cd]indol-6-one] displayed a melting point of 160 to 162 °C. Besides, the Ki on purified PARP protein came out at 66 nM.
The like results for `O=C1NCCc2c(-c3cc4ccccc4o3)[nH]c3cccc1c23` [Compound 32, 2-Benzofuran-2-yl-1,3,4,5-tetrahydro-azepino[5,4,3-cd]indol-6-one] were, in that order, 207 °C (dec.) and 11.3 nM.
The matching figures for `O=C1NCCc2c(-c3ccc4ccccc4c3)[nH]c3cccc1c23` [XX, 2-Naphthalen-2-yl-1,3,4,5-tetrahydro-azepino[5,4,3-cd]indol-6-one]: 261 to 262 °C and 4.6 nM.
For the compound `O=C(O)c1[nH]c2cccc3c2c1CCNC3=O` [XXX, 6-Oxo-3,4,5,6-tetrahydro-1H-azepino[5,4,3-cd]indole-2-carboxylic Acid], the melting point was 298 to 299 °C (dec.). For the same compound, the Ki on purified PARP protein is 370 nM.
Consider `O=C1NCCc2c(-c3ccc(CN4CCCC4)cc3)[nH]c3cc(F)cc1c23` [JJJJ, 8-Fluoro-2-(4-pyrrolidin-1-ylmethyl-phenyl)-1,3,4,5-tetrahydro-azepino[5,4,3-cd]indol-6-one], for which the Ki on purified PARP protein came out at 4.4 nM. The “Cytotoxicity Potentiation PF50” value in the data set with A549 cells stood at 2.4.
On to `CN(C)Cc1ccc(-c2[nH]c3cccc4c3c2CCNC4=O)cc1` [Compound 21, 2-(4-(N,N-Dimethylamino)methylphenyl)-3,4,5,6-tetrahydro-1H-azepino[5,4,3-cd]indol-6-one], for which the “Cytotoxicity Potentiation PF50” value in the data set on A549 cells was 2.4.
Turning to `O=C1NCCc2c(-c3ccsc3)[nH]c3cccc1c23` [CCCC, 2-Thiophen-3-yl-1,3,4,5-tetrahydro-azepino[5,4,3-cd]indol-6-one], the melting point was in the range of 255 to 256 °C. Also, on purified PARP protein, the inhibitory constant (Ki) was 4.8 nM.
For the compound `CC(=O)Nc1cccc(-c2[nH]c3cccc4c3c2CCNC4=O)c1` [Compound TT, N-[3-(6-Oxo-3,4,5,6-tetrahydro-1H-azepino[5,4,3-cd]indol-2-yl)-phenyl]-acetamide], the melting point was 300.5 to 302 °C. In addition, at purified PARP protein, the inhibition constant Ki is 12.2 nM and 4.2 nM.
Compound `CCCCCCCCOC(=O)c1[nH]c2cccc3c2c1CCNC3=O` [FFF, 6-Oxo-3,4,5,6-tetrahydro-1H-azepino[5,4,3-cd]indole-2-carboxylic acid octyl ester] yielded a melting point of 170 to 171 °C. Moreover, the Ki at purified PARP protein amounted to 125 nM.
`O=C1NCCc2c(-c3ccc(F)cc3F)[nH]c3cccc1c23` [Compound 39, 2-(2,4-Difluoro-phenyl)-1,3,4,5-tetrahydro-azepino[5,4,3-cd]indol-6-one] gave a melting point of 196 to 197 °C. Also, the Ki at purified PARP protein amounted to 4.8 nM.
Consider `CC(C)NC(=O)c1[nH]c2cccc3c2c1CCNC3=O` [PPPP, 6-Oxo-1,3,4,5-tetrahydro-1H-azepino[5,4,3-cd]indole-2-carboxylic acid isopropylamide], for which the melting point is 261 to 262 °C (dec.). Further, the Ki on purified PARP protein amounted to 32 nM.
Turning to `O=C1NCCc2c(-c3ccc(CN4CCCC4)cc3)[nH]c3cccc1c23` [UUUU, 2-(4-Pyrrolidin-1-ylmethylphenyl)-3,4,5,6-tetrahydro-1H-azepino[5,4,3-cd]indol-6-one], the “Cytotoxicity Potentiation PF50” value with A549 cells is listed as 2.0.
`COC(=O)CCc1ccccc1-c1[nH]c2cccc3c2c1CCNC3=O` [AAA, 3-[2-(6-Oxo-3,4,5,6-tetrahydro-1H-azepino[5,4,3-cd]indol-2-yl)-phenyl]-propionic acid methyl ester] displayed a melting point of 201 to 201.5 °C. On purified PARP protein, the Ki amounted to 11.4 nM.
Take `O=C1NCCc2c(-c3ccc(Br)cc3)[nH]c3cccc1c23` [Compound 34, 2-(4-Bromophenyl)-1,3,4,5-tetrahydro-azepino[5,4,3-cd]indol-6-one]: the melting point was 160 °C (dec.). Further, on purified PARP protein, the Ki is 3.9 nM.
The matching figures for `COc1ccccc1-c1[nH]c2cccc3c2c1CCNC3=O` [III, 2-(2-Methoxy-phenyl)-1,3,4,5-tetrahydro-azepino[5,4,3-cd]indol-6-one]: 254 to 255 °C and 40 nM.
In turn, `C#CCNC(=O)c1[nH]c2cccc3c2c1CCNC3=O` [OOOO, 6-Oxo-1,3,4,5-tetrahydro-1H-azepino[5,4,3-cd]indole-2-carboxylic acid prop-2-ynylamide] showed a melting point of 191 to 192 °C. The inhibition constant (Ki) on purified PARP protein amounted to 13 nM.
For the compound `O=C1NCCc2c(-c3ccc(CN4CCOCC4)cc3)[nH]c3cccc1c23` [VVVV, 2-(4-Morpholin-4-ylmethylphenyl)-3,4,5,6-tetrahydro-1H-azepino[5,4,3-cd]indol-6-one], on purified PARP protein, the Ki was 13.2 nM. In addition, the “Cytotoxicity Potentiation PF50” value with A549 cells is reported as 2.1.
Turning to `C[N+](C)([O-])Cc1ccc(-c2[nH]c3cccc4c3c2CCNC4=O)cc1` [XXXX, 2-(4-(N,N-Dimethylamino)methylphenyl)-3,4,5,6-tetrahydro-1H-azepino[5,4,3-cd]indol-6-one, N-oxide], at purified PARP protein, the Ki worked out at 18 nM. In addition, the “Cytotoxicity Potentiation PF50” value in the data set on A549 cells is 1.7.
Consider `Nc1cccc(C#Cc2[nH]c3cccc4c3c2CCNC4=O)c1` [UUU, 2-(3-Amino-phenylethynyl)-1,3,4,5-tetrahydro-azepino[5,4,3-cd]indol-6-one], for which the melting point was 261 to 262 °C (dec.). Besides, at purified PARP protein, the Ki worked out at 11.4 nM.
The like results for `C[S+]([O-])c1ccc(-c2[nH]c3cccc4c3c2CCNC4=O)cc1` (stereo not shown) [FFFF, 2-(4-Methanesulfinyl-phenyl)-1,3,4,5-tetrahydro-azepino[5,4,3-cd]indol-6-one] were, in that order, 316 to 317 °C (dec.) and 4.7 nM.
The compound `O=C1NCCc2c(CCc3ccccc3)[nH]c3cccc1c23` [Compound 37, 2-Phenethyl-1,3,4,5-tetrahydro-azepino[5,4,3-cd]indol-6-one] showed a melting point of 207 to 208 °C. Besides, the Ki on purified PARP protein was determined as 24 nM.
The matching figures for `O=C1NCCc2c(-c3cccc(-c4ccccc4)c3)[nH]c3cccc1c23` [RRR, 2-Biphenyl-3-yl-1,3,4,5-tetrahydro-azepino[5,4,3-cd]indol-6-one]: 160 to 163 °C and 23 nM.
For the compound `O=C1NCCc2c(-c3cc(C(F)(F)F)cc(C(F)(F)F)c3)[nH]c3cccc1c23` [Compound 33, 2-(3,5-bis-Trifluoromethyl-phenyl)-1,3,4,5-tetrahydro-azepino[5,4,3-cd]indol-6-one], the melting point was 230 °C (dec.). Also, the Ki on purified PARP protein was found to be 230 nM.
As for `O=C1NCCc2c(-c3ccc(F)cc3)[nH]c3cccc1c23` [Compound 23, 2-(4-Fluorophenyl)-3,4,5,6-tetrahydro-1H-azepino[5,4,3-cd]indol-6-one], the “Cytotoxicity Potentiation PF50” value with A549 cells was found to be 2.3.
For the compound `O=C1NCCc2c(-c3cccc(Cl)c3)[nH]c3cccc1c23` [Compound 40, 2-(3-Chlorophenyl)-1,3,4,5-tetrahydro-azepino[5,4,3-cd]indol-6-one], the melting point fell in the range of 147 to 149 °C. The Ki on purified PARP protein was 5.2 nM.
For `O=C(O)c1ccc(-c2[nH]c3cccc4c3c2CCNC4=O)cc1` [WWW, 4-(6-Oxo-3,4,5,6-tetrahydro-1H-azepino[5,4,3-cd]indol-2-yl)-benzoic Acid], the melting point is 345.5 to 346.5 °C (dec.). Also, the Ki at purified PARP protein amounted to 263 nM.
In turn, `O=C1NCCc2c(-c3ccccc3CCCO)[nH]c3cccc1c23` [BBB, 2-[2-(3-Hydroxy-propyl)-phenyl]-1,3,4,5-tetrahydro-azepino[5,4,3-cd]indol-6-one] showed a melting point of 233.5 to 234.5 °C. Also, at purified PARP protein, the Ki stood at 20 nM.
On to `Cn1cc2c3c(cccc31)C(=O)NCC2` [Compound 19, 1-N-Methyl-3,4,5,6-tetrahydro-1H-azepino[5,4,3-cd]indol-6-one], for which the melting point was 194 to 195 °C. The inhibition constant (Ki) on purified PARP protein came to 62 nM.
The matching figures for `COC(=O)c1[nH]c2cccc3c2c1CCNC3=O` [Compound 42, 6-Oxo-3,4,5,6-tetrahydro-1H-azepino[5,4,3-cd]indole-2-carboxylic acid methyl ester]: 266 to 267 °C and 5.1 nM.
The matching figures for `CCN(CC)CCc1ccc(-c2[nH]c3cccc4c3c2CCNC4=O)cc1` [Compound YY, 2-[4-(2-Diethylamino-ethyl)-phenyl]-3,4,5,6-tetrahydro-azepino[5,4,3-cd]indol-6-one]: 224 to 224.5 °C (dec.) and 15.1 nM.
The like results for `CC(C)(C)c1ccc(-c2[nH]c3cccc4c3c2CCNC4=O)cc1` [Compound 36, 2-(4-tert-Butyl-phenyl)-1,3,4,5-tetrahydro-azepino[5,4,3-cd]indol-6-one] were, in that order, 243 to 244 °C and 29 nM.
With `O=C1NCCc2c(-c3ccc(Cl)c(C(F)(F)F)c3)[nH]c3cccc1c23` [WW, 2-(4-Chloro-3-trifluoromethyl-phenyl)-1,3,4,5-tetrahydro-azepino[5,4,3-cd]indol-6-one], the melting point was 118.5 to 119 °C. The Ki on purified PARP protein amounted to 4.4 nM.
The matching figures for `CNC(=O)c1[nH]c2cccc3c2c1CCNC3=O` [OOO, 6-Oxo-3,4,5,6-tetrahydro-1H-azepino[5,4,3-cd]indole-2-carboxylic acid methylamide]: 321 to 322 °C (dec.) and 14 nM.
`CN(C)Cc1ccc(-c2[nH]c3cccc4c3c2CNC4=O)cc1` [Compound 6]: in the data set on A549 cells, the “Cytotoxicity Potentiation PF50” value is recorded as 2.2.

The record behind these values is patent publication US7429578B2, “Tricyclic inhibitors of poly(ADP-ribose) polymerases” (Agouron Pharmaceuticals, Inc., priority 1999, dated 2008).
